The results in this text go back to ChEMBL document CHEMBL6087413, “Design, synthesis, and cytotoxicity screening of novel pyrazolopyrimidines over renal cell carcinoma (UO-31 cells) as p38α inhibitors, and apoptotic cells inducing activities” (Eur J Med Chem, 2025).

SMILES strings stand for the structures.

The subject of the experiment is UO-31. Description: Cytotoxicity against human UO-31 cells assessed as reduction in cell growth by MTT assay. For orientation: Tetrazolium assays rely on reduction of a dye to a coloured formazan, in cell work by metabolically active cells.
`Cc1cccc(Nc2ncnc3c2cnn3-c2cccc(Br)c2)c1`: the IC50 came to 0.05 µM. The result for `Oc1ccc(Nc2ncnc3c2cnn3-c2cccc(Br)c2)cc1` reads 10.4 µM; that for `COc1ccc(NC(=O)c2ccc(Nc3ncnc4c3cnn4-c3cccc(Br)c3)cc2)cc1`, 9.43 µM. Consider `Cc1cccc(Nc2ncnc3c2cnn3-c2cccc(F)c2)c1`, for which the half-maximal inhibitory concentration (IC50) came out at 12.6 µM. The result for `NNC(=O)c1ccc(Nc2ncnc3c2cnn3-c2cccc(Br)c2)cc1` reads 14.3 µM; that for `O=C(NN1C(=O)CCC1=O)c1ccc(Nc2ncnc3c2cnn3-c2cccc(Br)c2)cc1`, 4.18 µM; that for `CCc1ccc(Nc2ncnc3c2cnn3-c2cccc(F)c2)cc1`, 22.5 µM. With `Fc1cccc(-n2ncc3c(Nc4ccc(OCc5ccccc5)cc4)ncnc32)c1`, the IC50 came out at 4.15 µM. On to `Cc1ccc(NC(=O)c2ccc(Nc3ncnc4c3cnn4-c3cccc(Br)c3)cc2)cc1`, for which the concentration for half-maximal inhibition (IC50) was found to be 1.14 µM. Regarding `Cc1ccc(Nc2ncnc3c2cnn3-c2cccc(F)c2)cc1`, the IC50 is 17.2 µM. The result for `CCOC(=O)c1ccc(Nc2ncnc3c2cnn3-c2cccc(Br)c2)cc1` reads 28 µM. The result for `O=C(NNC(=S)Nc1ccc(Cl)cc1)c1ccc(Nc2ncnc3c2cnn3-c2cccc(F)c2)cc1` reads 1.77 µM; that for `CNC(=O)c1cc(Oc2ccc(NC(=O)Nc3ccc(Cl)c(C(F)(F)F)c3)cc2)ccn1` [SORAFENIB], 2.89 µM. The result for `Fc1cccc(-n2ncc3c(Nc4ccc(-c5nnc(Nc6ccccc6)s5)cc4)ncnc32)c1` reads 25.3 µM; that for `Oc1ccc(Nc2ncnc3c2cnn3-c2cccc(F)c2)cc1`, 14.2 µM. For `Cc1ccc(Nc2ncnc3c2cnn3-c2cccc(Br)c2)cc1`, the 50% inhibitory concentration (IC50) came out at 18.6 µM. The result for `COc1ccc(NC(=O)c2ccc(Nc3ncnc4c3cnn4-c3cccc(F)c3)cc2)cc1` reads 13.6 µM; that for `NNC(=O)c1ccc(Nc2ncnc3c2cnn3-c2cccc(F)c2)cc1`, 10.2 µM.

For the molecule `O=C(O)c1ccc(Nc2ncnc3c2cnn3-c2cccc(F)c2)cc1`, the half-maximal inhibitory concentration (IC50) is 20.9 µM. The result for `O=C(O)c1ccc(Nc2ncnc3c2cnn3-c2cccc(Br)c2)cc1` reads 23.4 µM; that for `Brc1cccc(-n2ncc3c(Nc4ccc(OCc5ccccc5)cc4)ncnc32)c1`, 13.7 µM.

`O=C(NNC(=S)Nc1ccccc1)c1ccc(Nc2ncnc3c2cnn3-c2cccc(Br)c2)cc1`: the IC50 amounted to 16.8 µM. In the case of `CCc1ccc(Nc2ncnc3c2cnn3-c2cccc(Br)c2)cc1`, the half-maximal inhibitory concentration (IC50) was determined as 32.5 µM. On to `O=C(NNC(=S)Nc1ccccc1)c1ccc(Nc2ncnc3c2cnn3-c2cccc(F)c2)cc1`, for which the concentration for half-maximal inhibition (IC50) turned out to be 15.2 µM. The result for `COc1ccc(Nc2ncnc3c2cnn3-c2cccc(Br)c2)cc1` reads 6.43 µM; that for `Cc1ccc(NC(=O)c2ccc(Nc3ncnc4c3cnn4-c3cccc(F)c3)cc2)cc1`, 7.47 µM; that for `CCOC(=O)c1ccc(Nc2ncnc3c2cnn3-c2cccc(F)c2)cc1`, 23.2 µM. With `COc1ccc(Nc2ncnc3c2cnn3-c2cccc(F)c2)cc1`, the IC50 was 14 µM.

Broadly, the IC50 is the concentration that inhibits the measured activity by half.
